Data on 17 molecules can be found in article PMC5515859, “Metabolism of F18, a Derivative of Calanolide A, in Human Liver Microsomes and Cytosol” (Frontiers in Pharmacology, 2017).

Data set [1] has as its system CYP2C19. As to conditions: cited from earlier work.
A further data set has as its system CYP2A6. The following applies: cited from earlier work.
Data set [2] concerns CYP1A2. As to conditions: cited from earlier work.
In another data set the test system is CYP2D6. As to conditions: cited from earlier work.
The subject of data set [3] is carbonyl reductases in HLM. Kind of data set: Inhibition of carbonyl reduction of F18 (formation of M3-1 and M3-2) by chemical inhibitors in HLM. The format is in vitro ADME, human. As to conditions: NADPH, F18 10 μM, 30 min. The method, then:
F18 (10 μM) was incubated with HLMs (0.5 mg/mL) and the NADPH-generating system for 30 min or with HLcy and a cofactor (NADPH or NADH) for 10 min in the presence of chemical inhibitors under the above-described conditions. Control incubations using the vehicles but not the chemical inhibitors were also performed. The formation of M3-1 and M3-2 was quantified by LC-MS/MS.
(§1) The amounts of F18, M1, M2-9, M3-1, M3-2, M5-2, M5-3, M5-4, and M5-5 in the incubations were simultaneously quantified with the LC-MS/MS system. […] The sheath gas, auxiliary gas, spray voltage and tube lens parameters were the same as those for the metabolic profiling studies.

A further data set deals with CYPs and FMOs in HLMs. Kind of data set: Microsomal incubations of F18 with chemical inhibitors of CYPs or thermal inactivation of FMOs. The method, then: (§2) The contributions of CYPs and FMOs to the metabolism of F18 were investigated by chemical inhibition and thermal inactivation, respectively. […] Briefly, F18 (10 μM) was incubated with HLMs (0.5 mg protein/mL) and an NADPH-generating system in the absence and presence of CYP inhibitors at 37°C for 30 min, and the reaction was terminated with two volumes of ice-cold acetonitrile. […] In brief, HLMs (0.5 mg protein/mL) were preheated at 50°C for 5 min and then immersed in an ice-cold bath. After the addition of F18 (10 μM) and equilibration for 3 min at 37°C, the reaction was started by the addition of the NADPH-generating system. After a 30-min incubation, the reactions were terminated as described above. […] The formation of the major metabolites M1, M2-9, M3-1, M3-2, M5-2, M5-3, M5-4, and M5-5 was analyzed by LC-MS/MS.
as §1

Data set [4] in a line: Pharmacokinetics in rats after oral administration of F18. The format is in vivo, Sprague-Dawley rats. As to conditions: rat blood, oral F18 50 mg/kg, mean ± SD, n = 5. Here is the method: To investigate the pharmacokinetic characteristics of F18 and its major metabolites, five rats were intragastrically administered F18 at a dose of 50 mg/kg. Blood samples were collected in heparinized ice-bath tubes from the suborbital veniplex at 0, 0.25, 0.5, 1, 2, 4, 6, 8, 12, 16, and 24 h postdose. The blood concentrations of F18 and its major metabolites were determined by LC-MS/MS and their pharmacokinetic parameters were calculated through non-compartmental analysis using WinNonlin Version 6.1 (Pharsight, Mountain View, CA, USA).
For the blood samples, F18, M1, M3-1, and M3-2 were simultaneously quantified using the following elution gradient: Solvent B was maintained at 15% for 2 min, increased to 85% in 1 min, maintained at 85% for 5 min, decreased to 15% in 0.5 min and maintained at 15% for 4.5 min. Detection was also performed using a Finnigan TSQ Quantum MS instrument with an electrospray ionization probe operated in the positive mode.
Calibration curves for F18 and its metabolites were fitted via linearly weighted (1/x^2) least-squares regression. The correlation coefficient values of F18 and its metabolites in the incubations were >0.99 for the range 10–5,000 nM; the LOQ was 10 nM with a signal-to-noise ratio >10:1; the accuracies were 90–113% and the precisions (RSD) were <10.5%. In the blood samples, the correlation coefficient values for F18, M1, M3-1, and M3-2 were >0.99 for the range 5–2,000 nM; the LOQ was 5 nM with the signal-to-noise ratio >10:1; the accuracies were 91–112% and the precisions (RSD) were <9.6%. In addition, no interference was found in the retention time of each analyte in both the incubated samples and the blood samples.

Another data set deals with VSV-G/HIV-1 viruses. Kind of data set: microbe, parasite or virus in culture. The format is cell-based. As to conditions: Human immunodeficiency virus 1, HEK-293T, 48 h, read-out: IC50, inhibition of HIV-1 replication.
In the next data set the target is T1, recombinant CYP3A4 (Homo sapiens, UniProt P08684).
T1 construct: purchased BD Gentest (Woburn, MA, USA)
Kind of data set: Metabolism of F18 by cDNA-expressed CYP3A4. The format is in vitro ADME. The following applies: F18 10 μM, 50 pmol/mL enzyme, 1 h; among 14 CYP isoforms. The method, then:
To further verify the roles of CYPs and FMOs in the metabolism of F18 in humans, F18 (10 μM) was incubated individually with 14 cDNA-expressed human CYP isozymes (50-pmol/mL CYP1A1, CYP1A2, CYP2A6, CYP2B6, CYP2C8, CYP2C9, CYP2C19, CYP2D6, CYP2E1, CYP2J2, CYP3A4, CYP4F2, CYP4F3, and CYP4A11) and three cDNA-expressed FMO enzymes (50-pmol/mL FMO1, FMO3, and FMO5). The incubation conditions were similar to those used for HLMs (described above), with the exception of the incubating time […]. Samples incubated without NADPH were used as the negative control.

The subject of the next data set is HIV-1. The following applies: ref Xue et al., 2010, cited from earlier work.
Data set [5] has as its system Y181C single mutation of HIV-1. As to conditions: ref Xue et al., 2010; cited from earlier work.
The next data set has as its system CYP2C9. Further details: method as in unpublished data. As to conditions: previous study; ref unpublished data; cited from earlier work.
In data set [6] the test system is CYP2C19. Further details: method as in unpublished data. As to conditions: previous study; ref unpublished data; cited from earlier work.
The test system of data set [7] is CYP1A2. Further details: method as in unpublished data. The following applies: previous study; ref unpublished data; cited from earlier work.
Data set [8] deals with CYP3A4. On the set-up: method as in unpublished data. As to conditions: previous study; ref unpublished data; cited from earlier work.
Details of data set [9]: method as in Creagh et al., 2001; Eiznhamer et al., 2002. The following applies: ref Creagh et al., 2001; Eiznhamer et al., 2002; cited from earlier work.
A further data set has as its system CYP2E1. The following applies: cited from earlier work.
Data set [10] deals with CYP3A4. The experiment in a line: Microsomal incubations of F18 with chemical inhibitors of CYPs or thermal inactivation of FMOs. The following applies: human, human liver microsomes. Here is the method: as §2, §1
A further data set relates to CYP3A4/5. The following applies: cited from earlier work.
Setting [11] is: read-out: inhibitor Ki, CYP2A6, ref FDA Drug Development and Drug Interactions.
The mark [12] stands for this setting: high concentration: 18β-glycyrrhetinic acid 0.5 μM, 2-CEE 5 mM.
The mark [13] stands for this setting: low concentration: 18β-glycyrrhetinic acid 0.1 μM, 2-CEE 1 mM.
Setting [14] is: HLMs preheated at 50°C for 5 min, F18 10 μM.

The structures appear in SMILES notation. Where two headings read alike, the source gives them in different places.

The Ki is a measure of affinity in units of concentration, obtained from inhibition or displacement. In general, Km refers to the concentration of substrate that gives half-maximal velocity. For orientation: Cmax means the peak of the concentration-time curve. A word on the Tmax: it is the time from dosing to the highest level. In general, half-life refers to how long it takes for the measured level to halve. For orientation: IC50 means the concentration that gives 50% inhibition. As a reminder, the inhibition is the change of the read-out against control, counted positive when it falls.

T1 sequence (P08684 whole entry): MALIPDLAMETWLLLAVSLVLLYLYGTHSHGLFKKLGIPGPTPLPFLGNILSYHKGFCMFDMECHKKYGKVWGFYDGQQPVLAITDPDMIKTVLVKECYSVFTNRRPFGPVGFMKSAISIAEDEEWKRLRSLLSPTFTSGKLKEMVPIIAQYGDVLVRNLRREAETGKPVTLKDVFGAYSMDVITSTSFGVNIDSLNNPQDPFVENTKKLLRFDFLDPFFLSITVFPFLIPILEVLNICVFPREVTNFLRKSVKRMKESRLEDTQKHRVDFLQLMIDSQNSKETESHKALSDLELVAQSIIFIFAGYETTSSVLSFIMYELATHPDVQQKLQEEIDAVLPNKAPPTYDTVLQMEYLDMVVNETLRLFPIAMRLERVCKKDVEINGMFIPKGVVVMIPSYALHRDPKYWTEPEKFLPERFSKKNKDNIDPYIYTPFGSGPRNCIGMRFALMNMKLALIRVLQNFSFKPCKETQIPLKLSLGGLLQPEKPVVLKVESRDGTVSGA

For the molecule `C=C(C)[C@@H]1CCC2=CC(=O)C[C@@H](C)[C@]2(C)C1` [nootkatone], in the data set on CYP2C19 [1], the inhibitory constant (Ki) was 500 nM.

In the case of `COc1c2occc2cc2ccc(=O)oc12` [methoxsalen], the Ki in the data set on CYP2A6 (setting [11]) is […].

As to `Cc1nc2c([nH]1)c(=O)n(C)c(=O)n2Cc1ccco1` [furaf ylline, furafylline], the inhibitory constant (Ki) with CYP1A2 [2] is […].

With `COc1ccc2c(c1)[C@]13CCCC[C@@H]1[C@H](C2)N(C)CC3` [dextromethorphan], the Michaelis constant (Km) in the data set on CYP2D6 was 0.44 to 8.5 µM.

Regarding `CC1(C)[C@@H](O)CC[C@]2(C)[C@H]3C(=O)C=C4[C@@H]5C[C@@](C)(C(=O)O)CC[C@]5(C)CC[C@@]4(C)[C@]3(C)CC[C@@H]12` [18β-Glycyrrhetinic, 18β-glycyrrhetinic acid], in data set [3] (setting [12]), the “Percentage of inhibition of the formation of M3-1, H” value is 13.7% and the “Percentage of inhibition of the formation of M3-2, H” value stood at 67.5%. In addition, in data set [3] (setting [13]), the “Percentage of inhibition of the formation of M3-1, L” value worked out at 1.2% and the “Percentage of inhibition of the formation of M3-2, L” value is 51.4%.

Turning to `CCCc1cc(=O)oc2c3c(c4c(c12)OC(C)(C)C=C4)OC(CCl)CC3=O` (stereo not drawn) [Metabolite F18, 10-Chloromethyl-11-demethyl-12-oxo-calanolide A], in the data set with CYPs and FMOs in HLMs (setting [14]), the “Formation of M3-1 after thermal inactivation of FMOs” value is given as “significantly inhibited” and the “Reduction in M1 formation by thermal inactivation of FMOs” value is reported as 64%. In [4] (Sprague-Dawley), the Cmax turned out to be 443 ± 107 nM, the time to peak (Tmax) was 3.3 ± 2.2 h and the half-life is 318 ± 168 min. Also, the MRT last in [4] (Sprague-Dawley, read-out: MRT0−t) was 7.8 ± 1 h. Further, in data set [4] (Sprague-Dawley, read-out: MRT0−∞), the MRT inf came to 10 ± 2.4 h. Also, the “AUC0−∞” value in data set [4] (50 mg/kg) is recorded as 5,166 h^*nM. For the same molecule, the IC50 in the data set on VSV-G/HIV-1 viruses is 190 nM. Besides, on recombinant CYP3A4, the “Metabolic activity of recombinant CYP3A4 for the formation of M1, M2-9, M5-2, M5-3, M5-4, and M5-5” value is on record as “highest metabolic activity”. For the same molecule, in the data set with HIV-1, the “therapeutic (index)” value is reported as 1417. For the same molecule, the EC50 in the data set with HIV-1 (read-out: half-maximal effective concentration (EC50)) is 7.4 nM. Besides, in [5], the “Potency against Y181C mutant HIV-1 (in words)” value is given as “extremely high potency”. Besides, the “Effect on CYP2C9” value in the data set with CYP2C9 was “potent inhibitory effects”. For the same molecule, the “Effect on CYP2C19” value in the data set with CYP2C19 [6] was “potent inhibitory effects”. Also, the “Effect on CYP1A2” value in the data set on CYP1A2 [7] is recorded as “potent inhibitory effects”. Besides, the “Effect on CYP3A4” value in the data set with CYP3A4 [8] is on record as “activation-inducing effect”.

As for `CC[C@@H]1C(=O)OC[C@@H]1Cc1cncn1C` [P ilocarpine], the Ki in the data set with CYP2A6 was […].

Consider `CCCc1cc(=O)oc2c3c(c4c(c12)OC(C)(C)C=C4)O[C@H](C)[C@@H](C)[C@@H]3O` [calanolide A, Calanolide A], for which the “Tolerability in Phase I studies” value in data set [9] is given as “well tolerated”.

For `O=c1cc(-c2ccccc2)oc2c1ccc1ccccc12` [α-naphthoflavone], the Ki in the data set with CYP1A2 [2] (read-out: inhibitor Ki, CYP1A2, ref FDA Drug Development and Drug Interactions) was […].

As to `CCOc1ccc(NC(C)=O)cc1` [Phenacetin], in the data set with CYP1A2 [2] (read-out: substrate Km, CYP1A2, metabolite Acetaminophen, ref FDA Drug Development and Drug Interactions), the Km was 1.7 to 152 µM.

As to `Cc1ncsc1CCCl` [Clomethiazole], the Ki with CYP2E1 was 12 µM.

Consider `C=C[C@H]1C[N@@]2CC[C@H]1C[C@@H]2[C@@H](O)c1ccnc2ccc(OC)cc12` [quinidine], for which the Ki with CYP2D6 was […].

On to `C=CCSSCC=C` [diallyldisulfide], for which the Ki in the data set on CYP2E1 is 150 µM.

As to `NCCc1c[nH]c2ccccc12` [tr ypta mine], in the data set with CYP2A6 (setting [11]), the Ki was 1700 nM.

On to `CC(=O)N1CCN(c2ccc(OCC3COC(Cn4ccnc4)(c4ccc(Cl)cc4Cl)O3)cc2)CC1` (stereo not drawn) [ketoconazole], for which the inhibition at 30 min, 1 μM in the data set with CYP3A4 [10] was greater than 80%; in the data set with CYP3A4 [10] (probe F18 (10 μM), formation of metabolite M1), 20 to 30%. The Ki with CYP3A4/5 is 3.7 to 180 nM.

Regarding `Cc1ncc2n1-c1ccc(Cl)cc1C(c1ccccc1F)=NC2` [midazolam], the “Metabolism of probe substrate after thermal inactivation of HLMs” value in the data set on CYPs and FMOs in HLMs is “unchanged”. The Km in the data set on CYP3A4/5 was 1 to 14 µM.

Regarding `N[C@@H]1C[C@H]1c1ccccc1` (racemic) [Tranylcypromine, tranylcypromine], the Ki with CYP2A6 was 20 to 200 nM.
